System: Ras
Assay: Ras BRET sensor (Raf1-RBD-RlucII / rGFP-CAAX), AT1R-mediated
Assay type: cell-based, human
Source text: Since 21 inhibited both ERK1/2 and Akt activation by GPCRs and EGFR, we looked at a common target involved in both pathways. The small G protein Ras is an upstream regulator of both Ras-RAF-MEK-ERK and PI3K/Akt signaling pathways[35],[36]. Therefore, we explored 21’s ability to inhibit Ras activity using GST-Raf1-Ras-binding domain (RBD) in a pull-down assay. A reduction of 60% in GTP-bound Ras was noticed in pulled-down from cells treated with 21 and stimulated with either AT1R or EGFR, as compared to vehicle-treated cells (Fig. 4a, b). Complementary to this in vitro assay, we generated a Ras BRET assay, using the Raf-Ras binding domain tagged with RlucII (Raf1-RBD-RlucII) and the rGFP at the PM (rGFP-CAAX) (Supplementary Fig. 3c), to assess 21’s effects on Ras activation kinetics. […] Overexpression of either the active form of Ras (G12V) or SOS1 anchored at the PM (SOS-CAAX) produced a robust basal BRET signal that was no longer modulated by receptor activation (Supplementary Fig. 3d). […] 21’s potency to inhibit ARF6 and Ras is also consistent with its relative efficacy for inhibiting AT1R internalization and MAPK, respectively, when used at 50 μM (e.g., around 7 and 70 times the respective IC50s) (Figs. 2e and 3a). We also assessed if 21 was acting as a pan small G protein inhibitor by testing its effect on Rho and Rac/Cdc42. […] To assess Rac/Cdc42 activity, we generated a Rac/Cdc42 BRET sensor that consisted of the PAK-CRIB domain fused to RlucII (PAK-CRIB-RlucII) and the rGFP-CAAX (Supplementary Fig. 3e). PAK-CRIB, which binds to active Rac/Cdc42, was recruited to the PM upon AngII stimulation of cells and generated a robust BRET signal, which was blocked by the overexpression of the DN Rac1-T17N. Overexpression of the constitutively active Rac1-Q61L increased the basal BRET, which was no longer modulated by AT1R stimulation (Supplementary Fig. 3f).
HEK293SL cells were seeded at a density of 7.5 × 10^5 cells per 100-mm dish and 24 h later, transiently transfected as such. For receptor internalization experiments, cells were transfected with 0.12 μg AT1R-RlucII, B2R-RlucII, or β2AR-RlucII and 0.48 μg of either rGFP-CAAX (to assess removal from the PM) or rGFP-FYVE (to assess accumulation in the endosomes). For β-arrestin recruitment assays, cells were transfected with 0.48 μg of receptor-YFP along with 0.12 μg of β-arrestin-RlucII. For β-arrestin/AP-2 binding experiments, cells were transfected with 1 μg Flag-AT1R, 1 μg β2-Adaptin-YFP, and 0.12 μg β-arrestin2-RlucII. For G protein activation, cells were transfected with 3 μg of sp-Flag-AT1R along with either 4.5 μg of the Gαq-polycistronic BRET sensor or 0.24 μg of the Gαi3-RlucII and 0.6 μg of GFP10-Gγ2 and Gβ1 sensors or 0.12 μg PKN-RBD-RlucII and 0.48 μg of rGFP-CAAX. For PKC activation, cells were transfected with 3 μg of sp-Flag-AT1R and 0.18 μg of the PKC sensor. For GTPase activation experiments, cells were transfected with 1 μg Flag-AT1R, 0.48 μg of rGFP-CAAX, and either 0.12 μg of GGA3-PBD-RlucII, PAK-CRIB-RlucII or Raf-RBD-RlucII. For biosensor validation experiments, cells were additionally transfected with 500 ng Flag-K-Ras-WT, Flag-K-Ras-G12V, Flag-K-Ras-SOS-CAAX, HA-ARF6-WT, HA-ARF6-T27N, Myc-Rac1-WT, Myc-Rac1-Q61L or Myc-Rac1-T17N. For PI3K/Akt activation experiments, cells were transfected with 0.48 μg of rGFP-CAAX and 0.12 μg of Akt (PH)-RlucII. After 18 h of transfection, the media was replaced and cells were divided for subsequent experiments. Cells were detached and seeded onto poly-L-ornithine-coated 96-well flat white bottom plates (BrandTech Scientific) at a density of 2.5 × 10^4 cells per well in media. The next day, cells were washed once with Tyrode’s buffer (140 mM NaCl, 2.7 mM KCl, 1 mM CaCl2, 12 mM NaHCO3, 5.6 mM D-glucose, 0.5 mM MgCl2, 0.37 mM NaH2PO4, 25 mM HEPES, pH 7.4) and left in Tyrode’s buffer. […]

SMILES: CC(C)C(=O)N1CCN(c2ccc(NC(=O)c3cc4ccccc4o3)cc2Cl)CC1 [Compound 21]
- decrease of Ras activation following AT1R stimulation (Ras BRET assay) (50 μM): 50–70%
- IC50 (AT1R, dose-response): 700 nM
- Ras BRET sensor signal (Fig.4c), single experiments (Comp 21 50 μM, Time 0 min): 0
- Ras MEAN (Fig.4d) (Log [Comp 21] (M) -4): 16.3196
- Ras MEAN (Fig.4d) (Log [Comp21] (M) -4.3): 30.5907
- Ras MEAN (Fig.4d) (Log [Comp21] (M) -5): 29.6351
- Ras MEAN (Fig.4d) (Log [Comp21] (M) -5.3): 36.1989
- Ras MEAN (Fig.4d) (Log [Comp 21] (M) -6): 54.1758
- Ras MEAN (Fig.4d) (Log [Comp21] (M) -6.3): 74.1367
- Ras MEAN (Fig.4d) (Log [Comp 21] (M) -7): 95.616

Reference: publication PMC8333425, “Discovery of a dual Ras and ARF6 inhibitor from a GPCR endocytosis screen” (Nature Communications, 2021)
